Laboratory results published in PubChem BioAssay (NCI).
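Results reflect a 48-hour exposure of cells in 96-well plates to compound at five concentrations. TGI marks complete inhibition of growth.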

Key:
Experiment in all cases: inhibition of tumour cell growth, NCI panel, 48 h
MDA-N = tested on: MDA-N
NCI-H226 lung = tested on: NCI-H226 lung
SW-620 colon = tested on: SW-620 colon
HCC-2998 colon = tested on: HCC-2998 colon
MDA-MB-435 = tested on: MDA-MB-435
TK-10 renal = tested on: TK-10 renal
786-0 renal = tested on: 786-0 renal
OVCAR-8 ovarian = tested on: OVCAR-8 ovarian
SN12C renal = tested on: SN12C renal
HT29 colon = tested on: HT29 colon
NCI/ADR-RES ovarian = tested on: NCI/ADR-RES ovarian
SK-OV-3 ovarian = tested on: SK-OV-3 ovarian
SK-MEL-28 melanoma = tested on: SK-MEL-28 melanoma
MDA-MB-231 breast = tested on: MDA-MB-231 breast
OVCAR-3 ovarian = tested on: OVCAR-3 ovarian
DU-145 prostate = tested on: DU-145 prostate
SF-268 CNS = tested on: SF-268 CNS
KM12 colon = tested on: KM12 colon
NCI-H23 lung = tested on: NCI-H23 lung
HOP-62 NSCLC = tested on: HOP-62 NSCLC
RXF 393 renal = tested on: RXF 393 renal
SK-MEL-2 melanoma = tested on: SK-MEL-2 melanoma
A498 renal = tested on: A498 renal
K-562 leukemia = tested on: K-562 leukemia
CAKI-1 renal = tested on: CAKI-1 renal
HS 578T breast = tested on: HS 578T breast
ACHN renal = tested on: ACHN renal
UACC-257 melanoma = tested on: UACC-257 melanoma
PC-3 prostate = tested on: PC-3 prostate
MALME-3M melanoma = tested on: MALME-3M melanoma
OVCAR-5 ovarian = tested on: OVCAR-5 ovarian
OVCAR-4 ovarian = tested on: OVCAR-4 ovarian
A549 NSCLC = tested on: A549 NSCLC
T-47D breast = tested on: T-47D breast
NCI-H460 lung = tested on: NCI-H460 lung
UACC-62 melanoma = tested on: UACC-62 melanoma
SK-MEL-5 melanoma = tested on: SK-MEL-5 melanoma
HOP-92 NSCLC = tested on: HOP-92 NSCLC
UO-31 renal = tested on: UO-31 renal
SNB-19 CNS = tested on: SNB-19 CNS
EKVX NSCLC = tested on: EKVX NSCLC
COLO 205 colon = tested on: COLO 205 colon
LOX IMVI melanoma = tested on: LOX IMVI melanoma
SF-295 CNS = tested on: SF-295 CNS
MCF7 breast = tested on: MCF7 breast
U251 CNS = tested on: U251 CNS
BT-549 breast = tested on: BT-549 breast
CCRF-CEM leukemia = tested on: CCRF-CEM leukemia
SF-539 CNS = tested on: SF-539 CNS
RPMI-8226 leukemia = tested on: RPMI-8226 leukemia
HCT-116 colon = tested on: HCT-116 colon
SNB-75 CNS = tested on: SNB-75 CNS
M14 melanoma = tested on: M14 melanoma
HCT-15 colon = tested on: HCT-15 colon
MOLT-4 leukemia = tested on: MOLT-4 leukemia
IGROV1 ovarian = tested on: IGROV1 ovarian
NCI-H522 lung = tested on: NCI-H522 lung
SR leukemia = tested on: SR leukemia

For `CC(C)(C)OC(=O)NCCCCC(N)NC(=O)c1ccccc1` (configuration not stated), the TGI (MDA-N) was greater than 100 µM, the TGI (NCI-H226 lung) was greater than 100 µM and the TGI (SW-620 colon) was greater than 100 µM. The TGI (HCC-2998 colon) was greater than 100 µM, the TGI (MDA-MB-435) was greater than 100 µM and the TGI (TK-10 renal) was greater than 100 µM. It also gave a TGI (786-0 renal) greater than 100 µM, a TGI (OVCAR-8 ovarian) greater than 100 µM and a TGI (SN12C renal) greater than 100 µM. It also gave a TGI (HT29 colon) greater than 100 µM, a TGI (NCI/ADR-RES ovarian) greater than 100 µM and a TGI (SK-OV-3 ovarian) greater than 100 µM. For the same compound, the TGI (SK-MEL-28 melanoma) was greater than 100 µM, the TGI (MDA-MB-231 breast) was greater than 100 µM and the TGI (OVCAR-3 ovarian) was greater than 100 µM. For the same compound, the TGI (DU-145 prostate) was greater than 100 µM, the TGI (SF-268 CNS) was greater than 100 µM and the TGI (KM12 colon) was greater than 100 µM. The TGI (NCI-H23 lung) was greater than 100 µM, the TGI (HOP-62 NSCLC) was greater than 100 µM and the TGI (RXF 393 renal) was greater than 100 µM. It also gave a TGI (SK-MEL-2 melanoma) greater than 100 µM, a TGI (A498 renal) greater than 100 µM and a TGI (K-562 leukemia) greater than 100 µM. It also gave a TGI (CAKI-1 renal) greater than 100 µM, a TGI (HS 578T breast) greater than 100 µM and a TGI (ACHN renal) greater than 100 µM. The TGI (UACC-257 melanoma) was greater than 100 µM, the TGI (PC-3 prostate) was greater than 100 µM and the TGI (MALME-3M melanoma) was greater than 100 µM. It also gave a TGI (OVCAR-5 ovarian) greater than 100 µM, a TGI (OVCAR-4 ovarian) greater than 100 µM and a TGI (A549 NSCLC) greater than 100 µM. The TGI (T-47D breast) was greater than 100 µM, the TGI (NCI-H460 lung) was greater than 100 µM and the TGI (UACC-62 melanoma) was greater than 100 µM. The TGI (SK-MEL-5 melanoma) was greater than 100 µM, the TGI (HOP-92 NSCLC) was greater than 100 µM and the TGI (UO-31 renal) was greater than 100 µM. The TGI (SNB-19 CNS) was greater than 100 µM, the TGI (EKVX NSCLC) was greater than 100 µM and the TGI (COLO 205 colon) was greater than 100 µM. The TGI (LOX IMVI melanoma) was greater than 100 µM, the TGI (SF-295 CNS) was greater than 100 µM and the TGI (MCF7 breast) was greater than 100 µM. It also gave a TGI (U251 CNS) greater than 100 µM, a TGI (BT-549 breast) greater than 100 µM and a TGI (CCRF-CEM leukemia) greater than 100 µM. The TGI (SF-539 CNS) was greater than 100 µM, the TGI (RPMI-8226 leukemia) was greater than 100 µM and the TGI (HCT-116 colon) was greater than 100 µM. It also gave a TGI (SNB-75 CNS) greater than 100 µM, a TGI (M14 melanoma) greater than 100 µM and a TGI (HCT-15 colon) greater than 100 µM. For the same compound, the TGI (MOLT-4 leukemia) was greater than 100 µM, the TGI (IGROV1 ovarian) was greater than 100 µM and the TGI (NCI-H522 lung) was greater than 100 µM.
With `CN(C)CCNC(=O)c1cccc2c(NC(CCC(N)=O)C(=O)O)c3ccccc3nc12` (configuration not stated) the TGI (MDA-N) was 31.4 µM, the TGI (NCI-H226 lung) was 46.6 µM and the TGI (SW-620 colon) was greater than 100 µM. For the same compound, the TGI (HCC-2998 colon) was 55.6 µM, the TGI (MDA-MB-435) was 23.1 µM and the TGI (TK-10 renal) was greater than 100 µM. It also gave a TGI (786-0 renal) greater than 100 µM, a TGI (OVCAR-8 ovarian) greater than 100 µM and a TGI (SN12C renal) of 81 µM. It also gave a TGI (HT29 colon) of 41.7 µM, a TGI (NCI/ADR-RES ovarian) greater than 100 µM and a TGI (SK-OV-3 ovarian) of 54.9 µM. For the same compound, the TGI (SK-MEL-28 melanoma) was 38.1 µM, the TGI (MDA-MB-231 breast) was 24.7 µM and the TGI (OVCAR-3 ovarian) was greater than 100 µM. The TGI (DU-145 prostate) was greater than 100 µM, the TGI (SF-268 CNS) was 28.3 µM and the TGI (KM12 colon) was 59.1 µM. For the same compound, the TGI (NCI-H23 lung) was 18.4 µM, the TGI (HOP-62 NSCLC) was 47.8 µM and the TGI (SK-MEL-2 melanoma) was 25.4 µM. It also gave a TGI (A498 renal) of 37.2 µM, a TGI (K-562 leukemia) greater than 100 µM and a TGI (CAKI-1 renal) greater than 100 µM. For the same compound, the TGI (ACHN renal) was 18.8 µM, the TGI (UACC-257 melanoma) was greater than 100 µM and the TGI (PC-3 prostate) was 23.5 µM. For the same compound, the TGI (MALME-3M melanoma) was 19.5 µM, the TGI (OVCAR-5 ovarian) was greater than 100 µM and the TGI (OVCAR-4 ovarian) was 60.6 µM. The TGI (A549 NSCLC) was 64.6 µM, the TGI (NCI-H460 lung) was 54.9 µM and the TGI (UACC-62 melanoma) was greater than 100 µM. It also gave a TGI (SK-MEL-5 melanoma) of 31.4 µM, a TGI (HOP-92 NSCLC) greater than 100 µM and a TGI (UO-31 renal) of 7.15 µM. The TGI (SNB-19 CNS) was 15.5 µM, the TGI (EKVX NSCLC) was 53.3 µM and the TGI (COLO 205 colon) was 19.8 µM. It also gave a TGI (SR leukemia) greater than 100 µM, a TGI (LOX IMVI melanoma) of 35.6 µM and a TGI (SF-295 CNS) of 25.5 µM. It also gave a TGI (MCF7 breast) of 51.3 µM, a TGI (U251 CNS) greater than 100 µM and a TGI (BT-549 breast) of 33.4 µM. It also gave a TGI (CCRF-CEM leukemia) greater than 100 µM, a TGI (SF-539 CNS) of 21.7 µM and a TGI (RPMI-8226 leukemia) greater than 100 µM. For the same compound, the TGI (HCT-116 colon) was greater than 100 µM, the TGI (SNB-75 CNS) was 30.8 µM and the TGI (M14 melanoma) was 27.5 µM. The TGI (HCT-15 colon) was 22.5 µM, the TGI (MOLT-4 leukemia) was 71.3 µM and the TGI (IGROV1 ovarian) was 36.6 µM. It also gave a TGI (NCI-H522 lung) of 22.3 µM.
